Source: patent US20090311246A1, “Method of Enhancing Remyelination in Demyelinating Diseases of the Central Nervous System” (priority 2008, published 2009)
“Also recorded” adds a separate entry of the source.

Assays:
B6 mice with EAE [1] = assay: Antibody responses (ELISA) of E2 137-151 peptide treated EAE mice; format: in vivo
Description: FIG. 7 Comparison of antibody responses (±SEM) of EAE, E2-137-151 peptide treated, and untreated EAE mice to E2-137-151, MOG 35-55 and control peptides. Three experiments were performed with total number of 21 EAE and 22 treated EAE. All mice were immunized subcutaneously with myelin oligodendrocyte glycoprotein (MOG) peptide, 35-55 in CFA, as described above, on D0. EAE mice were treated as described for FIG. 6. All mice were sacrificed at the end of experiment on D39 post immunization.
(§1) To measure the antibody response of both WT and γδ KO mice against SFV and two of the peptides of the SFV envelope protein, E2, an indirect ELISA was performed. Sera were pooled from 4-6 SFV-infected WT, and 3 KO, mice on days 0, 7, 14, 21 and 35 pi. Briefly, Immunolon 2HB 96 well microtiter plates (VWR, Bridge Port, N.J.) were coated with 1 μg/well of each antigen in 100 μl/well carbonate buffer overnight at room temperature. After washing, the plates were blocked and serum samples were added. […] After washing, biotinylated goat anti-mouse Igs (BD Pharmingen, Torreyana, Calif.), Strepavidin conjugated to Horse Radish Peroxidase (Vector Laboratories, Burlingame, Calif.), and OPD substrate (Sigma, St. Louis, Mo.) were used, as previously described (4, 9). […] Values were considered to be positive when they were >0.3 OD units and exceeded the mean value plus three standard deviations for antibody response on day 0 pi of mice of the same strain.
Antibody Responses of RAE and E2 137-151 treated EAE mice to E2-137 and control peptide (E2 115-129) were measured by ELISA at the end of experiment on D39 pi.

B6 mice = conditions: unpublished data
Normal Rabbit Serum = assay: Indirect ELISA of normal rabbit serum/IgG against viral and myelin antigens; format: binding; conditions: 10^−2 diluted
[2] = tested on: SFV-infected WT and γδ KO mice; assay: E2 137-151 peptide immunization during SFV disease: histopathology, remyelination in one micron brain sections; format: in vivo; conditions: for Remyelination in KO mice: peptide-immunized SFV-infected γδ KO mice, day 28 pi
From the text: FIG. 4 Remyelination in E2 137-151 immunized, SFV-infected WT and γδ-KO B6 mice. All figures come from one micron epoxy sections taken from brain tissues, fixed in 2.5% glutaraldehyde/1% osmium tetroxide, embedded in epoxy resin, stained with toluidine blue and photographed by light microscopy.
(§2) In order to be able to detect the de- and remyelination accurately, at the end of the experiment, mice will be sacrificed by an overdose of sodium pentobarbital and perfused by intracardiac puncture with Trumps fixative, containing 4% paraformaldehyde and 1% glutaraldehyde. Brains and spinal cords are removed and post fixed in osmium textroxide. Each brain is sectioned coronally into three pieces by cuts through infandibulum and optic chiasm. Spinal cord tissues will be also harvested and processed. Every third block (10-12 blocks per spinal cord, cervical to lumbar range) will be embedded, along with brain sections, in Araldite plastic. The embedded tissues will be cross-sectioned at 1 μm thickness, and the slides stained with toluidine blue or 4% paraphenylenediamine to highlight the myelin sheets. We have studied the one-micron thin sections of the brains of SFV-infected WT and KO on days of 21-42 postinfection.
as §2, with “[…] These lesions were impossible to quantitate due to very small sizes of nerve fibers. Consequently we plan to study” for “The embedded tissues will be cross-sectioned at 1 μm thickness, and”, “cross” for “slides stained with toluidine blue or 4% paraphenylenediamine to highlight the myelin sheets. We have studied the one-micron thin”, “spinal cords to quantitate these lesins, as has been previously reported (71). […]” for “the brains of SFV-infected WT and KO on days of 21-42 postinfection.”

[3] = tested on: Rabbit Anti-SFV polyclonal antibody; assay: Indirect ELISA of rabbit anti-SFV polyclonal IgG against viral and myelin antigens; format: binding
Description: The total IgG fraction was commercially prepared (Strategic Biosolutions, Ramona, Calif.) from pooled sera of 3 rabbits immunized once with UV-inactivated SFV (A774 strain) emulsified in CFA and boosted 3 times with antigen in IFA at weeks 3, 5, and 7. The IgG fraction of the pooled antisera was purified by ion-exchange chromatography and contained 8.7 mg IgG/ml of PBS. Antibody activities to SFV and peptides of SFV, to E2, and to recombinant ® MOG and its peptides were confirmed by ELISA. Normal rabbit IgG, isolated from pooled normal rabbit sera by ion-exchange chromatography (Signa Chemical Co., St. Louis, Mo.), was dissolved in saline. Protein concentration was determined by the Bradford assay (Sigma), using normal rabbit IgG as the standard. The IgG solutions were diluted to 3 mg protein/ml in saline and sterilized by passage through a 0.22 μm filter (Millipore Corp., Bedford, Mass.).
as §1
The polyclonal rabbit anti SFV antibody was commercially prepared (Strategic Biosolutions, Ramona, Calif.) from pooled sera of 3 rabbits, immunized once with UV-inactivated SFV (A774 strain) emulsified in CFA and boosted 3 times with antigen in IFA at weeks 3, 5, and 7.

B6 mice with EAE [4] = assay: Inflammation, demyelination and remyelination in lumbar spinal cord of E2 137-151 treated EAE mice; format: in vivo
From the text: All figures come from one micron epoxy sections taken from brain tissues, fixed in 2.5% glutaraldehyde/1% osmium tetroxide, embedded in epoxy resin, stained with toluidine blue and photographed by light microscopy.
as §2
In order to be able to analyze de- and remyelination accurately in untreated and E2 137-151 treated LAE mice, one micron sections of lumbar spinal cords of all mice, were analyzed as described above for SFV-infected mice, on different days post immunization. […] Widespread Wallerian degeneration evidenced by dilated and collapsed myelin sheaths, some containing axonal remnants, was also observed. Cellular infiltration was present within the meningeal space as well. […] Spinal cord white matter of normal control mice is also shown for comparison (FIG. 8C)

Which results are given for `CC[C@H](C)[C@H](NC(=O)[C@H](CCC(=O)O)NC(=O)[C@H](CCCCN)NC(=O)CNC(=O)[C@H](Cc1ccc(O)cc1)NC(=O)[C@H](Cc1c[nH]cn1)NC(=O)[C@@H]1CCCN1C(=O)[C@H](CCCNC(=N)N)NC(=O)[C@@H](NC(=O)[C@@H](NC(=O)[C@H](Cc1ccccc1)NC(=O)[C@H](CCCCN)NC(=O)[C@H](CCC(=O)O)NC(=O)[C@H](CCCNC(=N)N)NC(=O)CN)[C@@H](C)O)[C@@H](C)CC)C(=O)O` [E2 137-151]?
Antibody response to E2-137, treated compared with untreated EAE mice (B6 mice with EAE [1]; ELISA, D39 pi): significantly higher than untreated EAE mice; Antibody responses to MOG 35-55 and control peptide, treated compared with untreated EAE mice (B6 mice with EAE [1]; ELISA, D39 pi): no significant difference; Antibody response to E2-137, treated compared with untreated EAE mice (B6 mice with EAE [1]; ELISA, D39 pi, listed as E2-137 peptide): treated>untreated EAE mice; Reactivity of sera from treated EAE mice with MBP 54-68 (B6 mice with EAE [1]; preliminary experiments): also reacted with MBP 54-68; Histopathology after inoculation with the peptide (B6 mice): did not cause histopathology; Normal Rabbit Serum, OD at 490 nm (Normal Rabbit Serum): 0.173 OD; Remyelination in WT mice ([2]; peptide-immunized SFV-infected WT mice): normal remyelination; Remyelination in KO mice [2]: advanced remyelination; Remyelination in KO mice ([2]; listed as E2 137-151 peptide): early remyelination; also recorded: promoted remyelination; Rabbit Anti-SFV Ab, OD at 490 nm ([3]; 10^−2 diluted, indirect ELISA): 1.107 OD; Immunoreactivity of IgG fraction of serum from rabbits immunized with UV-inactivated SFV ([3]; ELISA): strong immunoreactivity; OD Difference ([3]; Rabbit Anti-SFV Ab minus Normal Rabbit Serum): 0.934 OD; Wallerian degeneration in lumbar spinal cord (B6 mice with EAE [4]; day 33): No wallerian degeneration; Inflammation in lumbar spinal cord (B6 mice with EAE [4]; day 33 pi): little to no inflammation; also recorded: No wallerian degeneration and inflammation is present; Remyelination in spinal cord (B6 mice with EAE [4]; day 33 pi): some remyelinating fibers; also recorded: some fibers display remyelination; Remyelination in spinal cord (B6 mice with EAE [4]; day 33 pi, listed as E2 137-151 peptide): induced remyelination
